For one assay, the target named is Des1 (Homo sapiens (Human), UniProt O15121). Briefly: Jurkat T cell measurement of conversion of dihydroceramide to ceramide. In kind it is cell-based. The following applies: Jurkat clone E6-1 cells; for inhibition at 0.5 µM: 0.5 μM compound, read-out: Des1 % Inhib (0.5 μM). The protocol:
Jurkat T Cell Measurement of Conversion of Dihydroceramide to Ceramide
Jurkat clone E6-1 cells were grown and then seeded at 10^6 cells/mL in a 96-well plate (400 μL in each well. The cells were administered 100 μL of cell culture media containing 50-μM NBD-C6-dihydroceramide (Des1 substrate), affording a final concentration of substrate of 10 μM. The cells were incubated with substrate at 4° C. for 30 minutes. Following the incubation at 4° C., the cell suspension was centrifuged at 1200 rpm for 3 minutes, and the cell pellet is resuspended in 400 μL of fresh media containing various concentrations of either fenretinide (known Des1 inhibitor control compound) or test article. The final concentrations of control compound and test compounds were tested in a range from 0-10 μM. The cells and compounds were incubated at 37° C. for 3 hours. Following the 3-hour incubation, the plate was centrifuged at 2500 g for 3 minutes at 4° C., followed by collection and transfer of 200 μL of the supernatant to a new 96-well plate with 300 μL of methanol an containing appropriate internal standards for liquid chromatography/tandem mass spectroscopy (LC/MS/MS) analysis (internal standard: 500 nM labetalol and 100 nM alprazolam). The samples were vortexed for 2 minutes followed by centrifugation at 3,220 g for 20 minutes. Following centrifugation, 200 μL of the supernatant was transferred to a new 96-well plate for LC-MS/MS analysis to determine the amount of NBD-C6-ceramide (Des1 product) produced. The assay was typically performed in duplicate. A reduction of at least 30% compared to vehicle control (0 μM test article) is indicative of an active compound, and a reduction of 75% compared to vehicle control is preferred.

Assay [1] concerns insulin-stimulated Akt phosphorylation in C2C12 myotubes. Nature of the assay: C2C12 myotube assay of insulin-stimulated phosphorylation of Akt. It counts as cell-based. Conditions: Mus musculus, in the presence of palmitate, read-out: half-maximal effective concentration (EC50) for increasing insulin-stimulated Akt phosphorylation. The protocol: C2C12 Myotube Assay of Insulin-Stimulated Phosphorylation of Akt:
C2C12 myotubes are treated with 0.75 mM BSA-conjugated palmitate for 16 hours in the presence or absence of 7 non-zero concentrations of fenretinide (Des1 inhibitor control compound) or various test articles, followed by a 10-minute stimulation with insulin (100 nM). Cells are subsequently harvested and boiled in reducing SDS sample buffer and subjected to SDS-PAGE followed by detection of phosphorylated Akt, total Akt, and a suitable loading control (e.g. actin or GAPDH) by western blot using fluorescently-conjugated secondary antibodies. Band intensities are quantitated by an Odyssey imaging system (Li-COR), but could also be performed using HRP-conjugated secondary antibodies/enhanced chemiluminescence or by colorimetric readout.
Moreover, while currently contemplated for SDS-PAGE/immunoblot format, this assay could be adapted to ELISA or in-cell western (immunocytochemistry) formats for higher throughput testing of compounds. An increase of 30% compared to vehicle control (0 μM test article) is indicative of an active compound, and an increase of 50% compared to control is preferred. […] Des1 inhibitors disclosed herein are expected to be effective in this assay.

Another assay has as its system CFTR-KO mice. The following applies: cited from earlier work.
The mark [2] stands for this setting: NBD-C6-dihydroceramide substrate, read-out: Des1 IC50.

Here are results for twelve compounds from patent publication US11135207B2, “Inhibitors of dihydroceramide desaturase for treating disease” (Centaurus Therapeutics, priority 2016, dated 2021).

Where two headings read alike, the source gives them in different places.

Des1, sequence (O15121 whole entry): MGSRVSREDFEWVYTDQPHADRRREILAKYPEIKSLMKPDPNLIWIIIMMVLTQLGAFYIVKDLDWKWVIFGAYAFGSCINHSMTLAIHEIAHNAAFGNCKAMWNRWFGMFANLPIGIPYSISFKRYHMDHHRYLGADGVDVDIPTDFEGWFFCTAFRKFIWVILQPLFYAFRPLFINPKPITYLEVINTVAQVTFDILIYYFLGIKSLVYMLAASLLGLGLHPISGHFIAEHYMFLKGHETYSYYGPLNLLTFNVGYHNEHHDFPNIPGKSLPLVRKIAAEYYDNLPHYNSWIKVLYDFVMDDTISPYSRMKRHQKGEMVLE

For `O=C(Nc1ccc(O)cn1)c1ccc(C(F)(F)F)cc1` [Example 44, N-(5-hydroxy-pyridin-2-yl)-4-(trifluoro-methyl)-benzamide], the inhibition at 0.5 µM on Des1 worked out at 88%. Also, on Des1 (setting [2]), the IC50 is 0.063 µM.
The like results for `CC(c1ccc(C(=O)Nc2ccc(O)cn2)cc1)C(F)(F)F` (centres unmarked) [Example 45, N-(5-hydroxy-pyridin-2-yl)-4-(1,1,1-trifluoro-propan-2-yl)-benzamide] were, in that order, 94% and 0.023 µM.
As to `O=C(CC1CCN(c2ccc(C(F)(F)F)cc2)CC1)Nc1ccc(O)cn1` [Example 46, N-(5-hydroxypyridin-2-yl)-2-[1-[4-(trifluoromethyl)phenyl]piperidin-4-yl]acetamide], the inhibition at 0.5 µM on Des1 turned out to be 96.2%.
Take `O=C(CN1CCN(c2ccc(C(F)(F)F)cc2)CC1)Nc1ccc(O)cn1` [Example 47, N-(5-hydroxypyridin-2-yl)-2-[4-[4-(trifluoromethyl)phenyl]piperazin-1-yl]acetamide]: the IC50 on Des1 (setting [2]) was 0.05 µM.
As for `O=C(Nc1ccc(O)cn1)C1CCCN(c2ccc(F)cc2)C1` (centres unmarked) [Example 48, 1-(4-fluorophenyl)-N-(5-hydroxypyridin-2-yl)piperidine-3-carboxamide], the inhibition at 0.5 µM at Des1 is 91.3%. For the same compound, the IC50 on Des1 (setting [2]) was found to be 0.25 µM.
As for `O=C(CC1CCN(c2ccc(F)cc2)CC1)Nc1ccc(O)cn1` [Example 49, 2-[1-(4-fluorophenyl)piperidin-4-yl]-N-(5-hydroxypyridin-2-yl)acetamide], the inhibition at 0.5 µM on Des1 stood at 96.8%. Besides, the IC50 on Des1 (setting [2]) worked out at 0.013 µM.
The like results for `O=C(CN1CCN(c2ccc(F)cc2)CC1)Nc1ccc(O)cn1` [Example 50, 2-[4-(4-fluorophenyl)piperazin-1-yl]-N-(5-hydroxypyridin-2-yl)acetamide] were, in that order, 92.3% and 0.14 µM.
Consider `O=C(CC1CCN(c2ccc(Cl)cc2)CC1)Nc1ccc(O)cn1` [Example 51, 2-[1-(4-chlorophenyl)piperidin-4-yl]-N-(5-hydroxypyridin-2-yl)acetamide], for which the inhibition at 0.5 µM at Des1 worked out at 97.3%. In addition, at Des1 (setting [2]), the IC50 was determined as 0.005 µM.
The like results for `O=C(CN1CCN(c2ccc(Cl)cc2)CC1)Nc1ccc(O)cn1` [Example 52, 2-[4-(4-chlorophenyl)piperazin-1-yl]-N-(5-hydroxypyridin-2-yl)acetamide] were, in that order, 94.1% and 0.066 µM.
Consider `O=C(Nc1ccc(O)cn1)C1CCN(c2ccc(C(F)(F)F)cc2)CC1` [Example 53, N-(5-hydroxypyridin-2-yl)-1-[4-(trifluoromethyl)phenyl]piperidine-4-carboxamide], for which, at Des1 (setting [2]), the IC50 came to 0.002 µM.
For `O=C(Nc1ccc(O)cn1)C1CCN(c2ccc(F)cc2)CC1` [Example 54, 1-(4-fluorophenyl)-N-(5-hydroxypyridin-2-yl)piperidine-4-carboxamide], the inhibition at 0.5 µM at Des1 turned out to be 96.6%. The IC50 at Des1 (setting [2]) was found to be 0.011 µM.
As for `CC1=C(/C=C/C(C)=C/C=C/C(C)=C/C(=O)Nc2ccc(O)cc2)C(C)(C)CCC1` [fenretinide], at Des1 (read-out: half-maximal inhibitory concentration (IC50)), the IC50 lay in the range of 0.1 to 0.25 µM. In addition, in assay [1], the EC50 was found to be 0.6 µM. In addition, the “susceptibility to infection with Pseudomonas aeruginosa” value in the assay with CFTR-KO mice (CFTR-KO mice) is given as “reduce susceptibility to infection with Pseudomonas aeruginosa”. In the assay on CFTR-KO mice (lungs of CFTR-KO mice), the “lung AA/DHA ratio” value is listed as “normalize this ratio”.
